Source: patent US20110306606A1, “NOVEL 2,6-SUBSTITUTED-3-NITROPYRIDINE DERIVATIVE, METHOD FOR PREPARING SAME, AND PHARMACEUTICAL COMPOSITION INCLUDING SAME” (priority 2008, published 2011)

tested on: Osteoblasts (Calvarial cells); details: ICR, mouse, 72 h, 1 μM

Structure (SMILES)	Cell viability (%) Calvarial cell
CN1CCN(c2ccc([N+](=O)[O-])c(Nc3ccc(C(C)(C)C)cc3)n2)CC1 [Compound 41, 2-[4-(t-butyl)phenylamino]-6-(4-methylpiperazin-1-yl)-3-nitropyridine]	85%
CC(C)(C)c1ccc(Nc2nc(N3CCOCC3)ccc2[N+](=O)[O-])cc1 [Compound 44, 2-[4-(t-butyl)phenylamino]-6-morpholino-3-nitropyridine]	101%
CC(C)CNc1ccc([N+](=O)[O-])c(Nc2ccc(C#N)cc2)n1 [Compound 46, 2-(4-cyanophenylamino)-6-(isobutylamino)-3-nitropyridine]	100%
Nc1ccc(Nc2nc(N3CCC(O)CC3)ccc2[N+](=O)[O-])cc1 [Compound 61, 2-[4-(amino)phenylamino]-6-(4-hydroxypiperidino)-3-nitropyridine]	102%
Nc1ccc(Nc2nc(N3CCNCC3)ccc2[N+](=O)[O-])cc1 [Compound 62, 2-[4-(amino)phenylamino]-6-(piperazin-1-yl)-3-nitropyridine]	103%
CN1CCN(c2ccc([N+](=O)[O-])c(Nc3ccc(N)cc3)n2)CC1 [Compound 63, 2-[4-(amino)phenylamino]-6-(4-methylpiperazin-1-yl)-3-nitropyridine]	104%
Nc1ccc(Nc2nc(N3CCC(N)CC3)ccc2[N+](=O)[O-])cc1 [Compound 65, 2-[4-(amino)phenylamino]-6-(4-aminopiperidino)-3-nitropyridine]	102%
Nc1ccc(Nc2nc(NCCCn3ccnc3)ccc2[N+](=O)[O-])cc1 [Compound 67, 2-[4-(amino)phenylamino]-6-[(3-imidazol-1-yl)propylamino]-3-nitropyridine]	111%
CNc1ccc([N+](=O)[O-])c(Nc2cccc(N)c2)n1 [Compound 70, 2-[3-(amino)phenylamino]-6-(methylamino)-3-nitropyridine]	105%
CC(C)Nc1ccc([N+](=O)[O-])c(Nc2cccc(N)c2)n1 [Compound 71, 2-[3-(amino)phenylamino]-6-(isopropylamino)-3-nitropyridine]	114%
CC(C)CNc1ccc([N+](=O)[O-])c(Nc2cccc(N)c2)n1 [Compound 72, 2-[3-(amino)phenylamino]-6-(isobutylamino)-3-nitropyridine]	106%
CC(C)(C)Nc1ccc([N+](=O)[O-])c(Nc2cccc(N)c2)n1 [Compound 73, 2-[3-(amino)phenylamino]-6-(t-butylamino)-3-nitropyridine]	102%
Nc1cccc(Nc2nc(N3CCC(O)CC3)ccc2[N+](=O)[O-])c1 [Compound 74, 2-[3-(amino)phenylamino]-6-(4-hydroxypiperidino)-3-nitropyridine]	93%
CC(C)c1nccn1-c1ccc([N+](=O)[O-])c(Nc2cccc(N)c2)n1 [Compound 75, 2-[3-(amino)phenylamino]-6-[(2-isopropyl)imidazol-1-yl]-3-nitropyridine]	103%
Nc1cccc(Nc2nc(N3CCNCC3)ccc2[N+](=O)[O-])c1 [Compound 76, 2-[3-(amino)phenylamino]-6-(piperazin-1-yl)-3-nitropyridine]	102%
CN1CCN(c2ccc([N+](=O)[O-])c(Nc3cccc(N)c3)n2)CC1 [Compound 77, 2-[3-(amino)phenylamino]-6-(4-methylpiperazin-1-yl)-3-nitropyridine]	100%

Structure (SMILES)	Cell viability (%) Calvarial cell
Nc1cccc(Nc2nc(N3CCOCC3)ccc2[N+](=O)[O-])c1 [Compound 78, 2-[3-(amino)phenylamino]-6-morpholino-3-nitropyridine]	93%
Nc1cccc(Nc2nc(NCCCn3ccnc3)ccc2[N+](=O)[O-])c1 [Compound 82, 2-[3-(amino)phenylamino]-6-[(3-imidazol-1-yl)propylamino]-3-nitropyridine]	106%
Cc1nccn1-c1ccc([N+](=O)[O-])c(Nc2cccc(N)c2)n1 [Compound 85, 2-[3-(amino)phenylamino]-6-[(2-methyl)imidazol-1-yl]-3-nitropyridine]	101%
CC(C)CNc1ccc([N+](=O)[O-])c(Nc2ccc(-n3ccnc3)cc2)n1 [Compound 88, 2-[4-(imidazol-1-yl)phenylamino]-6-(isobutylamino)-3-nitropyridine]	96%
CC(=O)c1cccc(Nc2nc(NCC(C)C)ccc2[N+](=O)[O-])c1 [Compound 98, 2-(3-acetylphenylamino)-6-(isobutylamino)-3-nitropyridine]	92%
CC(C)Nc1ccc([N+](=O)[O-])c(Nc2ccc(N3CCOCC3)cc2)n1 [Compound 109, 2-(4-morpholinophenylamino)-6-(isopropylamino)-3-nitropyridine]	101%
CC(C)c1nccn1-c1ccc([N+](=O)[O-])c(Nc2ccc(N3CCOCC3)cc2)n1 [Compound 114, 2-(4-morpholinophenylamino)-6-[(2-isopropyl)imidazol-1-yl]-3-nitropyridine]	92%
O=[N+]([O-])c1ccc(NCc2ccncc2)nc1Nc1ccc(N2CCOCC2)cc1 [Compound 116, 2-(4-morpholinophenylamino)-6-[(4-pyridyl)methylamino]-3-nitropyridine]	89%
CC(C)(C)Nc1ccc([N+](=O)[O-])c(Nc2ccc(N3CCOCC3)cc2)n1 [Compound 117, 2-(4-morpholinophenylamino)-6-(t-butylamino)-3-nitropyridine]	90%
CNc1ccc([N+](=O)[O-])c(Nc2ccc(F)c(F)c2)n1 [Compound 122, 2-[(3,4-difluoro)phenylamino]-6-(methylamino)-3-nitropyridine]	121%
CC(C)Nc1ccc([N+](=O)[O-])c(Nc2ccc(F)c(F)c2)n1 [Compound 123, 2-[(3,4-difluoro)phenylamino]-6-(isopropylamino)-3-nitropyridine]	112%
CC(C)CNc1ccc([N+](=O)[O-])c(Nc2ccc(F)c(F)c2)n1 [Compound 124, 2-[(3,4-difluoro)phenylamino]-6-(isobutylamino)-3-nitropyridine]	106%
O=[N+]([O-])c1ccc(N2CCC(O)CC2)nc1Nc1ccc(F)c(F)c1 [Compound 126, 2-[(3,4-difluoro)phenylamino]-6-(4-hydroxypiperidino)-3-nitropyridine]	95%
CN1CCN(c2ccc([N+](=O)[O-])c(Nc3ccc(F)c(F)c3)n2)CC1 [Compound 128, 2-[(3,4-difluoro)phenylamino]-6-(4-methylpiperazin-1-yl)-3-nitropyridine]	87%
O=[N+]([O-])c1ccc(N2CCOCC2)nc1Nc1ccc(F)c(F)c1 [Compound 129, 2-[(3,4-difluoro)phenylamino]-6-morpholino-3-nitropyridine]	88%
NC1CCN(c2ccc([N+](=O)[O-])c(Nc3ccc(F)c(F)c3)n2)CC1 [Compound 130, 2-[(3,4-difluoro)phenylamino]-6-(4-aminopiperidino)-3-nitropyridine]	101%
